Experimental data taken from patent publication US10842807B2, “Methods of treating neurodegenerative disorders comprising DNA methyltransferase inhibitors” (Washington University, priority 2016, dated 2020).

How the values were obtained:
R6/2 HD mouse brain = assay: icv infusion in R6/2 mice, striatal qRT-PCR; format: in vivo; settings: 0.1 mM in saline icv infusion by osmotic pump from 6 weeks of age, one week, vs. R6/2-saline
[1] = tested on: Htt-72Q-expressing primary cortical neurons; assay: Cell death by nuclear morphology (Hoechst 33342); format: cell-based, mouse; settings: vs. Htt-72Q (0 μM)
Method: Mouse primary cortical and striatal neurons from embryonic day (E) 15.5 Swiss Webster mouse fetuses (Taconic) were first plated in the minimal essential medium (MEM) containing 10% FBS, 0.45% glucose, 1 mM sodium pyruvate, 2 mM glutamine, 20 U/ml penicillin and 20 μg/ml streptomycin, for 3 h and then maintained in serum-free Neurobasal medium (Life Technologies) containing NeuroCult™ SM1 neuronal supplement ([…] Technologies), 0.5 mM glutamine and 25 μM glutamate for the first 3 d in a humidified incubator (37° C. in 5% CO2). Half of the medium was replaced with Neurobasal medium with SM1 and 0.5 mM glutamine every 3 days. Primary cortical neurons plated on 96-well flat clear bottom black plates (Corning #3904) at 4×10^4 cells/well were infected with Htt exon1 expression lentivirus (Htt-25Q or Htt-72Q) or control empty vector lentivirus at 5 days in vitro (DIV 5). Primary striatal neurons plated on 96-well plates at 1×10^5 cells/well were infected with Htt exon1 expression lentivirus at DIV 4. Viral copy number was adjusted for transduction of neurons on the basis of titer measured using the Lenti-X qRT-PCR titration kit (Clontech), and equal numbers of viral particles of Htt-25Q and Htt-72Q expressing lentiviruses were used for transduction. For the experiments to test effects of DNMT inhibitors, neurons were treated with inhibitors six hours after Htt lentiviral infection. […]

Htt-72Q mRNA = assay: qRT-PCR for Htt-72Q (human) mRNA in cortical neurons; format: cell-based, mouse; settings: RNA at DIV 10, compared to vehicle (DMSO)
Method: (FIG. 8A) DIV 5 mouse primary cortical neurons were infected with Htt-72Q lentivirus and treated with decitabine or vehicle (DMSO). RNA was prepared at DIV 10 and subjected to qRT-PCR analysis for Htt-72Q (human). β-actin and Hprt were used as reference genes. […] (FIG. 8B) DIV 5cortical neurons were infected with Htt lentivirus and treated with decitabine (0.2 μM) or DMSO. Neurons were fixed at DIV 11-12 and subjected to indirect immunofluorescence with a specific mouse monoclonal Htt antibody EM48, which preferentially detects aggregated mutant protein. Nuclei were labeled with Hoechst 33342. Images were captured using an Operetta high-content imaging system (PerkinElmer) with a 20× objective lens. Bar 100 μm. (FIG. 8C) EM48 immunofluorescence intensity in (FIG. 8B) was quantified using an ImageJ-based macro. […] (FIG. 8D) Cortical neurons transduced and processed as in (FIG. 8A) were directly harvested in SDS sample buffer at DIV 10 and subjected to immunoblotting with anti-Htt EM48 monoclonal antibody. Blot was reprobed with anti-β-actin antibody. Representative immunoblot from 3 independent experiments is shown. […]
RNAs were isolated from cultured neurons 5 days after infection of Htt lentiviruses and mouse brain using the RNeasy Plus Mini Kit (QIAGEN) and RNeasy Plus Universal Mini Kit (QIAGEN), respectively. […] Relative mRNA levels were calculated using the ΔΔCq method.

[2] = cited from earlier work
cytidine deaminase = target: T1, cytidine deaminase (Homo sapiens, UniProt P32320); settings: literature refs 62, 64; cited from earlier work
T1 construct: host or cells: liver (in vivo)
T1 sequence (P32320 whole entry, species assumed): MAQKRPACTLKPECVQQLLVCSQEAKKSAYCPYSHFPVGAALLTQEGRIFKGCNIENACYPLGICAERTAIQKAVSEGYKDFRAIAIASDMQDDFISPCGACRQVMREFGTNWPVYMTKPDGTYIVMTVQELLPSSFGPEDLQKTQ

[3] = In vitro stability: preincubation at 37° C. in saline, then MTS neuroprotection assay; settings: 0.2 mM in saline preincubated at 37° C. for 11 days, then 0.2 μM on Htt-72Q cortical neurons, MTS at DIV 14
Text: Primary cortical neurons grown in a 96-well plate were transduced with Htt-expressing lentiviruses at DIV 5 and assessed for mitochondrial metabolic activity at 9 days post-infection (DIV 14) using 3-(4,5-dimethylthiazol-2-yl)-5-(3-carboxymethoxyphenyl)-2-(4-sulfophenyl)-2H-tetrazolium (MTS) (Promega) per manufacturer's instructions. MTS-reducing activity was normalized for each condition to Htt-25Q lentiviruses treated with vehicle or cotransduced with control RNAi lentivirus (=1). Experiments were performed in 3 or more wells per experiment in three to five independent experiments.

[4] = tested on: Htt-72Q-expressing primary cortical neurons; assay: Epigenetic drug library screen, resazurin (Alamar Blue) assay; format: cell-based, mouse; settings: 0.02, 0.2, 2 μM added at DIV 6, resazurin at DIV 14; hits validated by MTS
Method: As epigenetic gene regulation is a cell-type specific mechanism, we used a physiologically relevant, post-mitotic cortical neuron culture system for this screen. In this system, lentivirus-mediated expression of the exon 1-encoded N-terminal fragment of mutant Htt (Htt-72Q with a 72 glutamine repeat), but not wild-type (WT) Htt (Htt-25Q), induces neurotoxicity^38. […] In the drug screen, the viability of Htt-expressing cortical neurons was determined by the resazurin (Alamar Blue) assay, a quantitative measurement of mitochondrial metabolic activity, which correlates with cell viability.
Epigenetic drug screen was performed using a primary cortical neuron model of HD with a drug library composed of 84 compounds (Table 1), among which 80 drugs are purchased from Cayman Chemical (Epigenetic Screening Library Item No 11076) and four drugs, SGC0946, EPZ5676, EPZ6438, and GSK126, were obtained from Xcessbio Biosciences Inc. Mouse primary cortical neurons were plated on 96-well flat clear bottom black plates (Corning #3904). WT or mutant Htt exon1 fragment (Htt-25Q or Htt-72Q)-expressing lentiviruses are infected at DIV 5 as described above. The 84 compounds were added to the media at DIV 6 one day after Htt lentiviral infection with three different doses (0.02, 0.2, 2 μM) for each compound at triplicates. DMSO was used as control. Media containing compounds or DMSO were changed every three days to maintain the compounds' activity. At DIV 14, the viability of neurons was determined by resazurin (Alamar blue) assay, a quantitative measurement of mitochondrial metabolic activity. The screen was fully automated and performed in the High-Throughput Screening Center in Washington University School of Medicine. Any possible plate effects were determined using control plates treated with DMSO and used for normalization. Screen hits were validated by MTS assay.

[5] = literature refs 64, 65; cited from earlier work
[6] = tested on: Bdnf exon IV, exon VI, and IX transcripts in primary cortical neurons from BACHD mice; assay: qRT-PCR of Bdnf transcripts in BACHD primary cortical neurons; format: cell-based, mouse; settings: 0.2 μM for 3.5 days, vs. vehicle
Method: RNA was harvested 5 days later and subjected to qRT-PCR for total Bdnf (coding exon IX) using β-actin and 18S rRNA as reference genes. […] FIG. 3C depicts the schematic of the mouse Bdnf locus and the relative RNA levels of the Bdnf exons. White boxes, non-coding exons; gray box, coding exon. qRT-PCR was performed as in using exon-specific Bdnf primers. […] (FIG. 3G, FIG. 3H) Cortical neurons were co-transduced with lenti viruses expressing Htt and indicated shRNA and processed as in (FIG. 3C). […] (FIG. 3I) Primary cortical neurons from BACHD mice were treated with decitabine (0.2 μM) or vehicle for 3.5 days. qRT-PCR was performed using β-actin as a reference gene. […] Data are presented as mean+SEM.
Mouse primary cortical and striatal neurons from embryonic day (E) 15.5 Swiss Webster mouse fetuses (Taconic) were first plated in the minimal essential medium (MEM) containing 10% FBS, 0.45% glucose, 1 mM sodium pyruvate, 2 mM glutamine, 20 U/ml penicillin and 20 μg/ml streptomycin, for 3 h and then maintained in serum-free Neurobasal medium (Life Technologies) containing NeuroCult™ SM1 neuronal supplement ([…] Technologies), 0.5 mM glutamine and 25 μM glutamate for the first 3 d in a humidified incubator (37° C. in 5% CO2). Half of the medium was replaced with Neurobasal medium with SM1 and 0.5 mM glutamine every 3 days.

[7] = tested on: mutant Htt aggregates in Htt-72Q-expressing primary cortical neurons; assay: Mutant Htt aggregates, EM48 immunofluorescence and immunoblotting; format: cell-based, mouse
Method: (FIG. 8A) DIV 5 mouse primary cortical neurons were infected with Htt-72Q lentivirus and treated with decitabine or vehicle (DMSO). […] (FIG. 8B) DIV 5cortical neurons were infected with Htt lentivirus and treated with decitabine (0.2 μM) or DMSO. Neurons were fixed at DIV 11-12 and subjected to indirect immunofluorescence with a specific mouse monoclonal Htt antibody EM48, which preferentially detects aggregated mutant protein. Nuclei were labeled with Hoechst 33342. Images were captured using an Operetta high-content imaging system (PerkinElmer) with a 20× objective lens. Bar 100 μm. (FIG. 8C) EM48 immunofluorescence intensity in (FIG. 8B) was quantified using an ImageJ-based macro. […] (FIG. 8D) Cortical neurons transduced and processed as in (FIG. 8A) were directly harvested in SDS sample buffer at DIV 10 and subjected to immunoblotting with anti-Htt EM48 monoclonal antibody. Blot was reprobed with anti-β-actin antibody. Representative immunoblot from 3 independent experiments is shown. […] Data in (FIG. 8A) and (FIG. 8C) are presented as mean+SEM.
Image capture and quantification of Htt (EM48) immunofluorescence intensity were performed as described for those of NF.

Row | SMILES | striatal Penk RNA (R6/2 HD mouse brain) | striatal levels of Drd2, Ppp1r1b, Rasd2, and Adora2a mRNA (R6/2 HD mouse brain) | Htt-72Q induced cell death (condensed or fragmented nuclei) [1] | levels of Htt-72Q mRNA (Htt-72Q mRNA) | blood-brain barrier crossing ([2]; literature refs 62, 63) | in vivo half-life ([2]; literature refs 62, 64) [min] | degradation by cytidine deaminase in the liver (cytidine deaminase) | neuroprotective activity after preincubation (in vitro stability) [3] | outcome in epigenetic drug screen (84 compounds) [4] | in vitro stability as reported previously [5] | expression of Bdnf exon IV, exon VI, and IX transcripts [6] | levels of mutant Htt aggregates (EM48 immunofluorescence intensity) ([7]; 0.2 μM, fixed at DIV 11-12, vs. Htt-72Q-DMSO) | aggregated high molecular weight mutant Htt in stacking gel (EM48 immunoblot) ([7]; harvested at DIV 10)
1 | Nc1nc(=O)n([C@H]2C[C@H](O)[C@@H](CO)O2)cc1F [FdCyd, 5-fluoro-2′-deoxycytidine] | trend towards increasing | restored |  |  |  |  |  |  |  |  |  |  | 
2 | Nc1ncn([C@H]2C[C@H](O)[C@@H](CO)O2)c(=O)n1 [decitabine, 5-aza-2′-deoxycytidine] |  |  | blocked Htt-72Q induced cell death | did not decrease the levels of Htt-72Q mRNA | reported to cross the blood-brain barrier | < 20 | degraded rapidly | lost its activity | the most effective drug | instability | increased expression of Bdnf exon IV, exon VI, and IX transcripts | significantly decreased the levels of mutant Htt aggregates | could decrease the levels of aggregated high molecular weight mutant Htt
